Data published in US20070066570A1, “Methods for treating sleep disorders” (priority 2003, published 2007).

System: Adult, male Wistar rats
Assay: Sleep-wakefulness monitoring (EEG/EMG, SCORE-2000) in rats: NREM sleep cumulation and longest uninterrupted sleep bout
Type: in vivo, rat
Details: for LUSB (longest uninterrupted sleep bout each hour, mean adjusted for baseline and vehicle control) / NREM (mean maximum cumulation of NREM sleep over baseline, adjusted for baseline and vehicle control): intraperitoneal bolus at CT-18, male Wistar rats; for Increase of NREM sleep cumulation versus vehicle control (FIGS. 1-3), in words / Increase of LUSB versus vehicle control (FIGS. 4-6), in words: rats
Experimental: Sleep-wakefulness, locomotor activity and body temperature were monitored in vivo with the disclosed racemic sleep-inducing agent 1 and its R and S isomers 1-R and 1-S. Adult, male Wistar rats (250 g at time of surgery, Charles River Laboratories, Wilmington Mass.) were anesthetized (Nembutal, 62 mg/kg) and surgically prepared with a cranial implant to permit chronic electro-encephalogram (EEG) and electromyogram (EMG) recording. Body temperature and locomotor activity were monitored via a miniature transmitter (Mini-Mitter, Bend, Oreg.) surgically placed in the abdomen. The cranial implant consisted of stainless steel screws (two frontal [+3.2 AP from bregma, ±2.0 ML] and two occipital [−6.9 AP, ±5.5 ML]) for EEG recording. Two Teflon®-coated stainless steel wires were positioned under the nuchal trapezoid muscles for EMG recording. All leads were soldered to a miniature connector prior to surgery, and gas sterilized in ethylene oxide. The implant assembly was affixed to the skull with dental acrylic. A minimum of three weeks was allowed for surgical recovery.
Each rat was permanently housed in its own individual recording cage located within separate, ventilated compartments of custom- designed stainless steel cabinets. Each cage was enhanced with a filter-top riser and low-torque swivel-commutator. Food and water were available ad libitum. A 24-hr light-dark cycle (12 hours light, 12 hours dark) was maintained throughout the study using 4-watt fluorescent bulbs 5 cm from the cage. Animals were undisturbed for at least 48 hours before and after treatments.
Sleep and wakefulness were determined using “SCORE-2000™” (Hypnion, Worcester, Mass.)—an internet-based sleep-wake and physiological monitoring system. The system monitored amplified EEG (bandpass 1-30 Hz; digitization rate 400 Hz), integrated EMG (bandpass 10-100 Hz), body temperature and non-specific locomotor activity (LMA) via telemetry, and drinking activity, continuously and simultaneously. Arousal states were classified on-line as non-REM (NREM) sleep, REM sleep, wake, or theta-dominated wake every 10 seconds using EEG feature extraction and pattern-matching algorithms. […] The classification algorithm used individually-taught EEG-arousal-state templates, plus EMG criteria to differentiate REM sleep from theta-dominated wakefulness, plus behavior-dependent contextual rules (e.g., if the animal was drinking, it is awake). Drinking and locomotor activity (LMA) were recorded as discrete events every 10 seconds, while body temperature was recorded each minute. Locomotor activity was detected by a telemetry receiver (Mini-Mitter) beneath the cage. Telemetry measures (LMA and body temperature) were not part of the scoring algorithm; thus, sleep-scoring and telemetry data were independent measures.
Compounds were administered at CT-18, the peak of the activity-dominated period, in order to ensure prior wakefulness was sufficient to interact positively with hypnotic-drug effects, and sufficient time was allowed to view the time course of the treatment effect before lights-on (6 hours post-treatment). Compounds were suspended in sterile 0.25% or 0.5% methylcellulose (2 ml/kg). Treatments were administered as an intraperitoneal bolus.
A parallel group study design was employed. Vehicle controls were drawn from a large pool (N>200): a subset of the pooled vehicle controls was selected, based on computerized matching with the 24-hour pre-treatment baseline of the active treatment group.
In Table 1, N is the number of trials, and NREM and LUSB values are means adjusted for both baseline and vehicle control values. NREM represents the mean maximum cumulation of NREM sleep in minutes over baseline as a function of time in hours after treatment with the compound or the vehicle control; LUSB is the longest uninterrupted sleep bout each hour in minutes as a function of circadian time.

| SMILES | LUSB (longest uninterrupted sleep bout each hour, mean adjusted for baseline and vehicle control) (3 mg/kg) [min] | NREM (mean maximum cumulation of NREM sleep over baseline, adjusted for baseline and vehicle control) (3 mg/kg) [min] | LUSB (longest uninterrupted sleep bout each hour, mean adjusted for baseline and vehicle control) (10 mg/kg) [min] | NREM (mean maximum cumulation of NREM sleep over baseline, adjusted for baseline and vehicle control) (10 mg/kg) [min] | Increase of NREM sleep cumulation versus vehicle control (FIGS. 1-3), in words (10 mg/kg) | LUSB (longest uninterrupted sleep bout each hour, mean adjusted for baseline and vehicle control) (30 mg/kg) [min] | NREM (mean maximum cumulation of NREM sleep over baseline, adjusted for baseline and vehicle control) (30 mg/kg) [min] | Increase of LUSB versus vehicle control (FIGS. 4-6), in words (30 mg/kg) | Increase of NREM sleep cumulation versus vehicle control (FIGS. 1-3), in words (30 mg/kg) | LUSB (longest uninterrupted sleep bout each hour, mean adjusted for baseline and vehicle control) (45 mg/kg) [min] | NREM (mean maximum cumulation of NREM sleep over baseline, adjusted for baseline and vehicle control) (45 mg/kg) [min] |
| --- | --- | --- | --- | --- | --- | --- | --- | --- | --- | --- | --- |
| O=C(O)C1CCCN(CCC=C2c3ccccc3CCc3ccccc32)C1 (racemic) [Compound 1] | 4.7 | 15 | 2.8 | 24.8 | particularly effective | 4.9 | 35.4 | effective at increasing LUSB | effective at increasing NREM cumulation |  |  |
| O=C(O)[C@@H]1CCCN(CCC=C2c3ccccc3CCc3ccccc32)C1 [Compound 1-R] |  |  | 2.5 | 3.4 |  | 5.8 | 20.7 | effective at increasing LUSB | effective at increasing NREM cumulation | 10.3 | 31.8 |
| O=C(O)[C@H]1CCCN(CCC=C2c3ccccc3CCc3ccccc32)C1 [Compound 1-S] |  |  | 5.5 | 31.9 | particularly effective | 9.7 | 31.8 | effective at increasing LUSB | effective at increasing NREM cumulation |  |  |
